Assay results taken from patent US9439428B2, “Herbicidal compounds” (SYNGENTA LIMITED, priority 2011, dated 2016).

Legend:
Type in all cases: in vivo
Settings in all cases: 1000 g/h, evaluated after 13 days, five point scale
[1] = tested on: Abuthilon theophrasti (ABUTH); assay: Post-emergence herbicidal glasshouse test
Description: (§1) Seeds of a variety of test species are sown in standard soil in pots (Alopecurus myosuroides (ALOMY), Setaria faberi (SETFA), Echinochloa crus-galli (ECHCG), Abuthilon theophrasti (ABUTH) and Amaranthus retoflexus (AMARE)). After cultivation for one day (pre-emergence) or after 8 days cultivation (post-emergence) under controlled conditions in a glasshouse (at 24/16° C., day/night; 14 hours light; 65% humidity), the plants are sprayed with an aqueous spray solution derived from the formulation of the technical active ingredient in acetone/water (50:50) solution containing 0.5% Tween 20 (polyoxyethelyene sorbitan monolaurate, CAS RN 9005-64-5). Compounds ae applied at 1000 g/h. The test plants are then grown in a glasshouse under controlled conditions in a glasshouse (at 24/16° C., day/night; 14 hours light; 65% humidity) and watered twice daily. After 13 days for pre and post-emergence, the test is evaluated for the percentage herbicidal damage caused to the plant. The biological activities are shown in the following table on a five point scale (5=80-100% damage; 4=60-79% damage; 3=40-59% damage; 2=20-39% damage; 1=0-19% damage).

[2] = tested on: Alopecurus myosuroides (ALOMY); assay: Post-emergence herbicidal glasshouse test
Description: as §1

[3] = tested on: Amaranthus retoflexus (AMARE); assay: Post-emergence herbicidal glasshouse test
Description: as §1

[4] = tested on: Echinochloa crus-galli (ECHCG); assay: Post-emergence herbicidal glasshouse test
Description: as §1

[5] = tested on: Setaria faberi (SETFA); assay: Post-emergence herbicidal glasshouse test
Description: as §1

[6] = tested on: Abuthilon theophrasti (ABUTH); assay: Pre-emergence herbicidal glasshouse test
Description: as §1

[7] = tested on: Alopecurus myosuroides (ALOMY); assay: Pre-emergence herbicidal glasshouse test
Description: as §1

[8] = tested on: Amaranthus retoflexus (AMARE); assay: Pre-emergence herbicidal glasshouse test
Description: as §1

[9] = tested on: Echinochloa crus-galli (ECHCG); assay: Pre-emergence herbicidal glasshouse test
Description: as §1

[10] = tested on: Setaria faberi (SETFA); assay: Pre-emergence herbicidal glasshouse test
Description: as §1

Cc1cc(C(=O)C2C(=O)C(C)(C)C(=O)C(C)(C)C2=O)c(=O)n(-c2ccccc2)n1 [Compound 1.8]
5 (5=80-100% damage): percentage herbicidal damage, ABUTH, POST Application [1] | percentage herbicidal damage, ALOMY, POST Application [2] | percentage herbicidal damage, AMARE, POST Application [3] | percentage herbicidal damage, ECHCG, POST Application [4] | percentage herbicidal damage, SETFA, POST Application [5] | percentage herbicidal damage, ABUTH, PRE Application [6] | percentage herbicidal damage, ALOMY, PRE Application [7] | percentage herbicidal damage, AMARE, PRE Application [8] | percentage herbicidal damage, ECHCG, PRE Application [9] | percentage herbicidal damage, SETFA, PRE Application [10]

Cc1cc(C(=O)C2C(=O)C3CCC(C3)C2=O)c(=O)n(-c2ccccc2)n1 (stereo not drawn) [Compound 1.7]
5 (5=80-100% damage): percentage herbicidal damage, ABUTH, POST Application [1] | percentage herbicidal damage, ALOMY, POST Application [2] | percentage herbicidal damage, AMARE, POST Application [3] | percentage herbicidal damage, ECHCG, POST Application [4] | percentage herbicidal damage, SETFA, POST Application [5] | percentage herbicidal damage, ABUTH, PRE Application [6] | percentage herbicidal damage, ALOMY, PRE Application [7] | percentage herbicidal damage, AMARE, PRE Application [8] | percentage herbicidal damage, ECHCG, PRE Application [9] | percentage herbicidal damage, SETFA, PRE Application [10]

Cc1cc(C(=O)C2C(=O)CCCC2=O)c(=O)n(-c2ccccc2)n1 [Compound 1.2, 2-(6-Methyl-3-oxo-2-phenyl-2,3-dihydropyridazine-4-carbonyl)-cyclohexane-1,3-dione]
5 (5=80-100% damage): percentage herbicidal damage, ABUTH, POST Application [1] | percentage herbicidal damage, ALOMY, POST Application [2] | percentage herbicidal damage, AMARE, POST Application [3] | percentage herbicidal damage, ECHCG, POST Application [4] | percentage herbicidal damage, SETFA, POST Application [5] | percentage herbicidal damage, ABUTH, PRE Application [6] | percentage herbicidal damage, ALOMY, PRE Application [7] | percentage herbicidal damage, AMARE, PRE Application [8] | percentage herbicidal damage, ECHCG, PRE Application [9] | percentage herbicidal damage, SETFA, PRE Application [10]

COc1ccc(-n2nc(C)cc(C(=O)C3C(=O)CCCC3=O)c2=O)cc1 [Compound 1.3]
5 (5=80-100% damage): percentage herbicidal damage, ABUTH, POST Application [1] | percentage herbicidal damage, ALOMY, POST Application [2] | percentage herbicidal damage, AMARE, POST Application [3] | percentage herbicidal damage, ECHCG, POST Application [4] | percentage herbicidal damage, SETFA, POST Application [5] | percentage herbicidal damage, ABUTH, PRE Application [6] | percentage herbicidal damage, ALOMY, PRE Application [7] | percentage herbicidal damage, AMARE, PRE Application [8] | percentage herbicidal damage, ECHCG, PRE Application [9] | percentage herbicidal damage, SETFA, PRE Application [10]

COc1ccc(-n2nc(C)cc(C(=O)C3C(=O)C4CCC(C4)C3=O)c2=O)cc1 (stereo not drawn) [Compound 1.4]
5 (5=80-100% damage): percentage herbicidal damage, ABUTH, POST Application [1] | percentage herbicidal damage, ALOMY, POST Application [2] | percentage herbicidal damage, AMARE, POST Application [3] | percentage herbicidal damage, ECHCG, POST Application [4] | percentage herbicidal damage, SETFA, POST Application [5] | percentage herbicidal damage, ABUTH, PRE Application [6] | percentage herbicidal damage, ALOMY, PRE Application [7] | percentage herbicidal damage, AMARE, PRE Application [8] | percentage herbicidal damage, ECHCG, PRE Application [9] | percentage herbicidal damage, SETFA, PRE Application [10]

COc1ccc(-n2nc(C)cc(C(=O)C3C(=O)CC(C)CC3=O)c2=O)cc1 (stereo not drawn) [Compound 1.5]
5 (5=80-100% damage): percentage herbicidal damage, ABUTH, POST Application [1] | percentage herbicidal damage, ALOMY, POST Application [2] | percentage herbicidal damage, AMARE, POST Application [3] | percentage herbicidal damage, ECHCG, POST Application [4] | percentage herbicidal damage, SETFA, POST Application [5] | percentage herbicidal damage, ABUTH, PRE Application [6] | percentage herbicidal damage, ALOMY, PRE Application [7] | percentage herbicidal damage, AMARE, PRE Application [8] | percentage herbicidal damage, ECHCG, PRE Application [9] | percentage herbicidal damage, SETFA, PRE Application [10]

O=C1CCCC(=O)C1C(=O)c1ccnn(-c2ccccc2)c1=O [Compound 1.1, 2-(3-Oxo-2-phenyl-2,3-dihydropyridazine-4-carbonyl)-cyclohexane-1,3-dione]
5 (5=80-100% damage): percentage herbicidal damage, ABUTH, POST Application [1] | percentage herbicidal damage, ALOMY, POST Application [2] | percentage herbicidal damage, AMARE, POST Application [3] | percentage herbicidal damage, ECHCG, POST Application [4] | percentage herbicidal damage, SETFA, POST Application [5] | percentage herbicidal damage, ABUTH, PRE Application [6] | percentage herbicidal damage, ALOMY, PRE Application [7] | percentage herbicidal damage, AMARE, PRE Application [8] | percentage herbicidal damage, ECHCG, PRE Application [9] | percentage herbicidal damage, SETFA, PRE Application [10]

Cc1cc(C(=O)C2C(=O)CC(C)CC2=O)c(=O)n(-c2ccccc2C)n1 (stereo not drawn) [Compound 1.6]
5 (5=80-100% damage): percentage herbicidal damage, ABUTH, POST Application [1] | percentage herbicidal damage, ALOMY, POST Application [2] | percentage herbicidal damage, AMARE, POST Application [3] | percentage herbicidal damage, ECHCG, POST Application [4] | percentage herbicidal damage, SETFA, POST Application [5] | percentage herbicidal damage, ABUTH, PRE Application [6] | percentage herbicidal damage, ALOMY, PRE Application [7] | percentage herbicidal damage, AMARE, PRE Application [8] | percentage herbicidal damage, ECHCG, PRE Application [9] | percentage herbicidal damage, SETFA, PRE Application [10]

Cc1cc(C(=O)C2C(=O)CC(C)CC2=O)c(=O)n(-c2ccccc2)n1 (stereo not drawn) [Compound 1.9]
5 (5=80-100% damage): percentage herbicidal damage, ABUTH, POST Application [1] | percentage herbicidal damage, ALOMY, POST Application [2] | percentage herbicidal damage, AMARE, POST Application [3] | percentage herbicidal damage, ECHCG, POST Application [4] | percentage herbicidal damage, SETFA, POST Application [5] | percentage herbicidal damage, ABUTH, PRE Application [6] | percentage herbicidal damage, ALOMY, PRE Application [7] | percentage herbicidal damage, AMARE, PRE Application [8] | percentage herbicidal damage, ECHCG, PRE Application [9] | percentage herbicidal damage, SETFA, PRE Application [10]
